This is an account of results in PMC9150076 (Journal of Medicinal Chemistry, 2022).

Each structure is given as a SMILES string. Where two headings read alike, the source gives them in different places.

Data set [1] has as its target T1, human MAGL (Homo sapiens, UniProt Q99685).
T1 sequence (Q99685 1-303): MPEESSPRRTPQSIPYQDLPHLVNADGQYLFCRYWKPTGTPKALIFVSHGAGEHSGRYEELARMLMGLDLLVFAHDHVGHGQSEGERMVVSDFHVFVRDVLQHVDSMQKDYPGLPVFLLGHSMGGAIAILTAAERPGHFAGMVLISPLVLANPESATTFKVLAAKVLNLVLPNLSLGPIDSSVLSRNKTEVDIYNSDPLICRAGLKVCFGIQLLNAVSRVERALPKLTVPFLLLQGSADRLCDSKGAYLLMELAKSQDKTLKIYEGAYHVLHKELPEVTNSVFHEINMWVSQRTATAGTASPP
More on the design: purchased Cayman Chemical; method as in PMID 33045662. Conditions: reference benzoylpiperidines; read-out: IC50 hMAGL; cited from earlier work.

The target of data set [2] is T2, human FAAH (Homo sapiens, UniProt O00519).
T2 sequence (O00519 1-579): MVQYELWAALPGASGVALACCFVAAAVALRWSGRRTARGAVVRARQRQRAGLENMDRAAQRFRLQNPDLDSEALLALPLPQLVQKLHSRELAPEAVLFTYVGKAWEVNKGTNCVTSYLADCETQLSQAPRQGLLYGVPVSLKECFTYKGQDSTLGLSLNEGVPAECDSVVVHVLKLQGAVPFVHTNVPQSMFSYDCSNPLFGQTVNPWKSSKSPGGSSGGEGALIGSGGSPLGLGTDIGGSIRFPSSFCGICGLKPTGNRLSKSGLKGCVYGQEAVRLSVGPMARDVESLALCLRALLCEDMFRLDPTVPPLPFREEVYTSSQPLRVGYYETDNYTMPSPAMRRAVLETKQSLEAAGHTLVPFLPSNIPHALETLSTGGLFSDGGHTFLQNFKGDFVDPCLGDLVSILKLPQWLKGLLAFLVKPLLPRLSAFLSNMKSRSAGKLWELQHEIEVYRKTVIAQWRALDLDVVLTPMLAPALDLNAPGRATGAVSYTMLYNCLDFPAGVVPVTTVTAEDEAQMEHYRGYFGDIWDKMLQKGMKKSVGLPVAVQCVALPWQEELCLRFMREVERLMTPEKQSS
On the set-up: purchased Cayman Chemical; method as in PMID 33045662. Conditions: reference benzoylpiperidines; read-out: IC50 hFAAH; cited from earlier work.

A short description of data set [3]: Stability test in polar solvents. Type of data set: physicochemical. Here is the method: Each compound was dissolved at RT in MeOH or PBS (25 mM, pH 7.4) up to a final concentration of 500 μM. Aliquot samples (20 μL) were taken at fixed time points (0.0, 4.0, 8.0, and 24.0 h) and were analyzed by UV/LC–MS. For each compound, the determination was performed in three independent experiments.

Data set [4] is described as follows: Metabolic stability in human liver microsomes. The class given is in vitro ADME. Conditions: 37 °C, 1 h, percentage of unmodified compound. The procedure: The reaction was cooled down in ice and quenched by adding acetonitrile (1.0 mL). After centrifugation (4000 rpm for 10 min), the supernatant was taken, dried under nitrogen flow, and suspended in 100 μL of methanol and the parent drug and metabolites were subsequently determined by UV/LC–MS. The percentage of nonmetabolized compounds was calculated by comparison with reference solutions. For each compound, the determination was performed in three independent experiments.

The nature of data set [5]: Water solubility. The class given is physicochemical. Conditions: distilled water, room temperature. The procedure:
6.9 software. Chromatographic separation was obtained using a Kinetex C18 column (150 × 4.6 mm) with a 5 μm particle size and gradient elution with a binary solution; (eluent A: ACN, eluent B: water, both eluents were acidified with formic acid 0.1% v/v). The analysis started with 5% of A (from t = 0 to t = 1 min), then A was increased to 95% (from t = 1 to t = 10 min), then kept at 95% (from t = 10 to t = 19 min), and finally returned to 5% of eluent A in 1.0 min. The flow rate was 0.6 mL/min, and injection volumes were 10 μL. The instrument operated in positive mode, and parameters were detector 1450 V, drying gas pressure 35.0 psi, desolvation temperature 300.0 °C, nebulizing gas 45.0 psi, needle 5550 V and shield 350 V. Nitrogen was used as a nebulizer gas and drying gas. Collision-induced dissociation was performed using argon as the collision gas at a pressure of 1.8 mTorr in the collision cell. The transitions as well as the capillary voltage and the collision energy used are appropriated for each tested compound. Quantification of the single compound was made by comparison with appropriate calibration curves realized with standard solutions in methanol. LC analyses of PAMPA, metabolic stability, and stability tests (in MeOH, PBS, human plasma) were performed by UV/LC–MS with an Agilent 1100 LC/MSD VL system ((G1946C) Agilent Technologies, Palo Alto, CA) using a Phenomenex Kinetex C18–100 Å (150 × 4.6 mm, 5 μm particle size) at room temperature. Analyses were carried out with the same chromatographic conditions reported above.
Each sample was mixed at room temperature in a shaker water bath for 24 h.[62] The resulting suspension was filtered through a 0.45 μm nylon filter (Acrodisc), and the solubilized compound was quantified in triplicate using the LC–MS/MS method reported above, by comparison with the appropriate calibration curve that was obtained from samples of the compound dissolved in methanol at different concentrations.

Data set [6] can be described thus: Stability test in human plasma. The class given is in vitro ADME. Conditions: 37 °C. The procedure:
The incubation mixture (total volume of […]) was constituted by the following components: pooled human plasma (1.5 mL, 55.7 mg protein/mL),[65] HEPES buffer (1.4 mL, 25 mM, 140 mM NaCl pH 7.4), and 100 μL of each compound in DMSO (3.0 mM). The solution was mixed in a test tube that was incubated at 37 °C. At set time points (0.0, 0.25, 0.50, 1.0, 2.0, 4.0, 8.0, and 24.0 h), samples of 100 μL were taken, mixed with 400 μL of cold acetonitrile, and centrifuged at 5000 rpm for 15 min.[66] The supernatant was removed and analyzed by UV/LC–MS. For each compound, the determination was performed in three independent experiments.

Data set [7] deals with MAGL (Mus musculus, UniProt O35678).
MAGL, sequence (O35678 whole entry): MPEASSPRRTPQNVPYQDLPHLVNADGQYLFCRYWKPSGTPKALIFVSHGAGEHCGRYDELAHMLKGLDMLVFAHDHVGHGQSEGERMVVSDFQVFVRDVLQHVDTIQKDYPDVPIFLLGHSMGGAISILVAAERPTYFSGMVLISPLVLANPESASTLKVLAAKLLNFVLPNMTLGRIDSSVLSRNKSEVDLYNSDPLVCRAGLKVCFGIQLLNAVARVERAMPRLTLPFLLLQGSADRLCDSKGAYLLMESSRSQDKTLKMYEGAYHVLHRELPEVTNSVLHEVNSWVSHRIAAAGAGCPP
The subject of data set [8] is active caspase-3 in PDAC3 cells. As to the kind of experiment: Active caspase-3 immunoassay, PDAC3. The class given is cell-based, human. As to conditions: PDAC3, compared to untreated cells.
Data set [9] has as its system PDAC3 cells. As to the kind of experiment: Wound-healing/migration assay, PDAC3. The class given is cell-based, human. As to conditions: PDAC3, 20 h, drug at 5× IC50; control 59 ± 8%.
Data set [10] has as its system PDAC3 primary cell culture. Briefly: Growth inhibition, SRB assay, PDAC3. Conditions: PDAC3, SRB. The class given is cell-based, human.
Data set [11] deals with T1, human MAGL.
For data set [12], the system named is PDAC2 cells. As to conditions: PDAC2, single agent.
In data set [13] the test system is active caspase-3 in PDAC2 cells. As to the kind of experiment: Active caspase-3 immunoassay, PDAC2. The class given is cell-based, human. As to conditions: untreated 0.35.

As usually defined, the IC50 is the concentration at which inhibition is half-maximal. With `O=C(c1ccc(Sc2ccccc2)cc1)C1CCN(C(=O)c2cc(O)ccc2F)CC1` [Compound 5b], the results for the IC50 in data set [1] and in data set [2] were 30.5 ± 1.8 nM and above 10000 nM, respectively.

As a reminder, the solubility is the concentration that dissolves in the medium under given conditions. As for `O=C(c1ccc(Sc2cccc(C(F)(F)F)c2)cc1)C1CCN(C(=O)c2cc(O)ccc2F)CC1` [Compound 5c, reference compound], the “stability MeOH” value in data set [3] (MeOH, RT) is above 24 h. Besides, in data set [3] (PBS pH 7.4, RT), the “stability PBS pH 7.4” value is on record as above 24 h. Further, the metabolic stability in data set [4] is 90.5%. Moreover, the figures for the solubility at 24 h in data set [5] (read-out: water solubility) and in data set [5] (read-out: water solubility (logS)) were below 1 ng/mL and below 1.99 nM, respectively. The same compound yielded a stability human plasma in data set [6] above 24 h.

In the case of `O=C(Oc1ccc([N+](=O)[O-])cc1)N1CCC(C(O)(c2ccc3c(c2)OCO3)c2ccc3c(c2)OCO3)CC1` [JZL-184], the “TAMRA-FP labelling of MAGL bands (ABPP)” value in [7] is “can fully compete with the probe”. For the same compound, the “levels of active caspase-3” value in data set [8] was “similarly effective in stimulating caspase-3”. The compound also yielded a scratch area closed in data set [9] of 43 ± 8%. Besides, the “PDAC3 cell growth inhibitory effect (cell growth curves)” value in data set [10] was “effective in reducing PDAC3 proliferation”. The “mechanism of inhibition (pre-incubation and dilution assays)” value in data set [11] is listed as “irreversible mechanism of action”.

In data set [12], `Nc1ccn([C@@H]2O[C@H](CO)[C@@H](O)C2(F)F)c(=O)n1` [gemcitabine] yielded an apoptosis fold induction/change of around 5 fold. The “levels of active caspase-3” value is reported as “significantly higher levels of active caspase-3” in [8] and 0.88 ng/mL in data set [13].
